From US9050275B2, “Methods of screening for and treating autism spectrum disorders and compositions for same” (Theta Biomedical Consulting & Development Co., Inc., priority 2009, dated 2015)
Several values for one entry are separate records, joined by “and”; a condition that tells them apart may be missing. Identical values can stand only once. Like-named read-outs stand apart in the source and are kept apart here. Where no end group is shown, it is not given here.

What was measured:
[1] = system: LAD2 human mast cells; test: cells; assay type: cell-based; details: for VEGF release / SP-induced VEGF release / HgCl2-induced VEGF release: 24 hours; for inhibition at 100 µM: Homo sapiens, LAD2, luteolin 0.1 mM, 10 min pretreatment
Description: (§1) LAD2 human mast cells were cultured in serum-free media (StemPro-34; GIBCO, Grand Island, N.Y.) supplemented with 2 mM L-glutamine, 100 IU/ml penicillin, 50 μg/ml streptomycin, and 100 ng/ml recombinant human Stem Cell Factor (rhSCF, obtained from Amgen, Inc., Thousand Oaks, Calif.). For optimal cell growth, LAD2 cell density was maintained between 0.5×106 and 1×10^6 cells/ml. Cell viability was assessed at 1 and 24 hr using trypan blue (0.3%) exclusion.
LAD2 cells were washed with DPBS and suspended in complete culture medium. LAD2 cells (2×10^5 cells/well/200 μl) were plated in 96 well flat bottom Falcon cell culture plates (Becton Dickinson, Franklin Lakes, N.J.) and were pre-incubated for 15 min at 37° C. in 5% CO2 atmosphere. The cells were then incubated with either SP (2 μM), HgCl2 (10 μM), or thimerosal (1, 10 μM) for 24 hours at 37° C. Control cells were treated with equal volume of only culture medium. For the inhibition experiments, thimerosal or methyl thiosalicylate were added together with the triggers, while luteolin was added 10 min before the triggers. After the reaction time, plates were centrifuged and the supernatant was gently collected from the wells and stored at −20° C. until VEGF was measured by Enzyme-Linked Immunosorbent Assay (ELISA) using a commercial kit (R&D Systems, Minneapolis, Minn.). The minimum detectable level of VEGF was 5 pg/ml.

[2] = system: mast cells; test: Inhibition of mast cells by quercetin; assay type: cell-based; details: Mast cell
[3] = system: Male BALB/6 mice; test: Brain blood vessel leakage by Evans blue extravasation; assay type: in vivo
Description: Male BALB/6 mice (6 weeks old, Jackson Laboratories, Bar Harbor, Me.) were injected in their tail vein with 0.2 ml of Evans blue (0.4%). Binding of Evans blue to the albumin found in the blood prevents Evans blue from escaping the circulation and constitutes a good biomarker from extravasation in brain parenchyma.
Mice were anesthetized with a single intraperitoneal injection of ketamine/xylazine (10 mg/kg and 80 mg/kg body weight, each), an intracardiac catheter was inserted in the left ventricle, blood was withdrawn, and 10 ml normal saline was administered intracardially to wash any Evans blue from the systemic circulation. The mice were then decapitated and the whole brain was removed. For brain extravasated Evans blue measurements, the brains were first weighed and the Evans blue was then extracted in 1 ml of N,N-dimethylformamide overnight at 55° C. and the optical density was measured at 620 nm using a PerkinElmer Luminescence Spectrophotometer (Perkin Elmer, Norwalk, Conn.). EB concentration was calculated using a standard curve and values were normalized to the tissue weight and expressed as arbitrary units/mg of tissue. Five animals per group were estimated to be sufficient for significant differences given the variability (<50%) observed. […] Values were then compared using the non-parametric Mann-Whitney U test. Significance is denoted by p<0.05.

[4] = system: human cultured LAD2 cells; test: Release of mitochondrial DNA from LAD2 mast cells (real time PCR); assay type: cell-based; details: 5 min pretreatment with luteolin; neurotensin stimulation
Description: Total DNA was extracted from supernatant fluids of cultured LAD2 cells using Qiagen DNA Micro extraction kit (Qiagen, Calif.). Mitochondrial specific DNA for Cytochrome B (Mt-CytB) and 7S (Mt-7S) was detected and quantified by Real time PCR using Taqman assay (Mt-7S: Hs02596861_s1; Mt-CYB: Hs02596867_s1; GAPDH: Hu, VIC, TAMRA, Applied Biosystems, Calif.). GAPDH DNA was used to exclude any genomic “contamination.”

[5] = system: LAD2 human mast cells; details: thimerosal 10 μM, 24 hours, trypan blue exclusion
Description: as §1

[6] = substance 10 μM added together with SP (2 μM)

What does the source list for `[Cl][Hg][Cl]` [HgCl2, Mercury chloride]?
VEGF release ([1]; 10 μM, no other trigger): 488±76 pg/106 cells; SP-induced VEGF release [1, 6]: 553±63 pg/106 cells

Which results are given for `COC(=O)c1ccccc1S` [Methyl thiosalicylate, methyl thiosalicylate]?
SP-induced VEGF release ([1]; substance 1 μM added together with SP (2 μM)): 281.63±24 pg/106 cells; HgCl2-induced VEGF release ([1]; substance 1 μM added with HgCl2 (10 μM)): 258±29 pg/106 cells; SP-induced VEGF release [1, 6]: 185.85±23 pg/106 cells; HgCl2-induced VEGF release ([1]; substance 10 μM added with HgCl2 (10 μM)): 249.5±24 pg/106 cells

With `O=c1c(O)c(-c2ccc(O)c(O)c2)oc2cc(O)cc(O)c12` [Quercetin] as the molecule, how does the inhibition at 10 µM [2] read?
Its inhibition at 10 µM is 80%.

`O=c1cc(-c2ccc(O)c(O)c2)oc2cc(O)cc(O)c12` [luteolin, 5,7,3′,4′-tetrahydroxyflavone] was tested. Which “inhibition of NT-induced brain blood vessel leakage” value ([3]; pretreatment with luteolin 40 mg/kg body weight mixed in olive kernel extract, NT 500 nmol/kg ip) did it give?
The value was “completely inhibited”.

And the “inhibition of brain blood vessel leakage induced by IL-33 and NT” value ([3]; pretreatment with the same amount of luteolin (40 mg/kg), IL-33 1 microg/mouse plus NT)?
The value was 50%.

And the “inhibition of release of extracellular mt components from mast cells” value [4]?
Its value is “can be inhibited”.

And the inhibition at 100 µM ([1]; HgCl2 10 μM, read-out: inhibition of HgCl2-stimulated VEGF release)?
The inhibition at 100 µM was 100%.

And the inhibition at 100 µM ([1]; thimerosal 10 μM, read-out: inhibition of thimerosal-stimulated VEGF release)?
The inhibition at 100 µM was 100%.

What does the source list for `C[CH2][Hg][S]c1ccccc1C(=O)[O-].[Na+]` [thimerosal]?
decrease of viability [5]: less than 10%; VEGF release ([1]; 1 μM, no other trigger): 326±12 pg/106 cells; VEGF release ([1]; 10 μM, no other trigger): 335±12 pg/106 cells; SP-induced VEGF release [1, 6]: 274.5±35 pg/106 cells

How did the VEGF release ([1]; SP 2 μM alone) turn out when “Substance P (RPKPQQFFGLM-NH2; ends and bridges not checked; UniProt P20366 58-68, looked up) [SP, neuropeptide, non-allergic mast cell trigger]” was run?
The VEGF release was 445±16 pg/106 cells and 413.72±18 pg/106 cells.

B1: IL-33: interleukin-33, cytokine injected intraperitoneally (protein, UniProt O95760 1-270, looked up)
Interleukin-33: MKPKMKYSTNKISTAKWKNTASKALCFKLGKSQQKAKEVCPMYFMKLRSGLMIKKEACYFRRETTKRPSLKTGRKHKRHLVLAACQQQSTVECFAFGISGVQKYTRALHDSSITGISPITEYLASLSTYNDQSITFALEDESYEIYVEDLKKDEKKDKVLLSYYESQHPSNESGDGVDGKMLMVTLSPTKDFWLHANNKEHSVELHKCEKPLPDQAFFVLHNMHSNCVSFECKTDPGVFIGVKDNHLALIKVDSSENLCTENILFKLSET
Which brain leakage ([3]; IL-33 1 microg/mouse, alone or with NT, Evans blue extravasation) does the source give for B1 here?
Its brain leakage is “no effect”.
